Experimental data reported in ChEMBL document CHEMBL4825758, “Discovery of G Protein-Biased Antagonists against 5-HT7R” (J Med Chem, 2021).

Assay: Metabolic stability in human liver microsomes assessed as parent compound remaining at 1 uM preincubated for 5 mins followed by NADPH regeneration system addition and measured after 30 mins by LC-MS analysis
Format: ADME, Microsome
Details: time 35 min, read-out: Stabilty

remaining at 0.5 h, 1 µM: 27.5%
Compound: Clc1cccc(-c2n[nH]cc2N2CCCNCC2)c1
